These results are taken from patent publication US20030143559A1, “Novel estrogen receptor ligand binding domain variants and novel ligands and pharmaceutical compositions” (priority 2001, published 2003).

Where a chain is given by its changes, count along the chain named.

Series [1] can be described thus: BIV lentiviral reporter vector without activator, eGFP expression by FACS in 293T cells. It counts as cell-based. Conditions: reporter BIVC2H2FOSEGFP, activator none; 100 nM, forty-eight hours. On the technique in general: Flow cytometry measures light scatter and fluorescence of single cells or particles in a stream.
Source text: One of the reporter constructs described above was introduced individually into 3×10^6 293T cells along with other components of the BIV four component packaging system (U.S. patent application of Luo et al. filed Feb. 4, 2002 entitled “Recombinant Bovine Immunodeficiency Virus Based Gene Transfer System” (Atty Docket No. 2048-127; serial number to be assigned) and Matukonis et al., (“Development of Second and Third Generation of Bovine Immunodeficiency Virus Based Gene Transfer Systems” Human Gene Therapy, in press (2002)) by CaPO4-mediated transient transfection. Eighteen hours post transfection, media were replaced with fresh DMEM containing 10% FBS and 200 mM butyric acid. Forty-eight hours later, conditioned media were collected from the transfected cells. Two mls of conditioned media from each transfection plus 2 mls of DMEM/FBS were added to 2×10^5 293T cells in individual wells of a six well tissue culture plate. In addition, 2 mls of conditioned media from either the pBIVC2H2FOSeGFP transfections were combined with 2 mls of conditioned media from the pBIVMNDC7 or pBIVMND2AS transfections and added to 2×10^5 293T cells. 8 μg/ml protamine sulfate were added to each transduction reaction. Four hours later, conditioned media was removed from the transduced cells and replaced with fresh DMEM/FBS. […]
The target of series [2] is T1, 524G transcription factor (Homo sapiens, UniProt P03372, H524G).
T1 construct: fragment B=ER amino acids 258-554; expressed in transfected cells; host or cells: HeLa cells transduced with Av3 or gutless adenoviral vector
T1 sequence (P03372 258-554 H524G): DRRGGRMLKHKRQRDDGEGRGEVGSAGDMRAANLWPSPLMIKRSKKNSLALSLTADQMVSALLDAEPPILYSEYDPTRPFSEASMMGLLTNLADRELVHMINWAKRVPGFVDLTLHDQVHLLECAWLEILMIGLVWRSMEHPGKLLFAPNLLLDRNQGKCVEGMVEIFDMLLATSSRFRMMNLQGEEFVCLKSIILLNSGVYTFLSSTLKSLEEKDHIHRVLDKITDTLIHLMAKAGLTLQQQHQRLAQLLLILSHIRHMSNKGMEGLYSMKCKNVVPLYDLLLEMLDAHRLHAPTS
In words: In vitro inducible luciferase expression with gutless adenoviral transcription factor vector in Hela cells. The class given is cell-based.

Another series addresses T2, Av3-H524G (Homo sapiens, UniProt P03372, H524G).
T2 construct: fragment B=ER amino acids 258-554; expressed in transfected cells; host or cells: HeLa cells transduced with Av3 or gutless adenoviral vector
T2 sequence (P03372 258-554 H524G): T1 sequence (P03372 258-554 H524G)
The experiment in a line: Transactivation on adenoviral (Av3)-delivered ER variant, luciferase in HeLa cells. It counts as cell-based. To be noted: 100 nM test compound, 24 hrs (FIG. 5). From the text: Xu et al., Molecular Therapy, 3:262-273, 2000.

The target in the next series is T3, ER-LBD H524G (Homo sapiens, UniProt P03372, H524G).
T3 construct: expressed in transfected cells
T3 sequence (P03372 311-547 H524G limits assumed): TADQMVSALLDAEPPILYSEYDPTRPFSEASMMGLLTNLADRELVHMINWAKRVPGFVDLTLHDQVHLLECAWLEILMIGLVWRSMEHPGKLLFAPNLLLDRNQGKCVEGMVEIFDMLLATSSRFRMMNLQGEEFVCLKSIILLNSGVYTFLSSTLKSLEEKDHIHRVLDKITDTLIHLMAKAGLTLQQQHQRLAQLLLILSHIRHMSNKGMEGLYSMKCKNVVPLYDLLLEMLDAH
In words: ER-LBD H524G transactivation, cell-based reporter gene assay. The method, then:
(§1) In order to evaluate the ability of the fusion proteins C7LBD A, B, and the related LBD mutants to regulate transgene expression, a standard co-transfection reporter assay was performed. A reporter construct, henceforth known as 6×2C7pGL3Luc, containing six copies of a directly repeated C7 binding site (6×2C7) inserted upstream of an SV40 promoter fragment and reporter gene encoding firefly luciferase (pGL3Pro; Promega) was transfected along with the designated fusion protein and assayed as described below. Note the consensus C7 binding site is 5′-GCG TGG GCG-3′.
(§2) Cultured cells (HeLa, Cos, Hep3B or other) were seeded at 5×10^4 cells/well in a 24 well plate prior to the day of transfection in DMEM Phenol-free media, supplemented with L-glutamine and 5% (v/v) charcoal-dextran stripped Fetal Bovine serum (sFBS). Cells were transfected using the Qiagen Superfect Transfection method. For each well 1 μg of total DNA, containing 0.5 μg luciferase reporter plasmid (6×2C7pGL3Luc), 0.1 μg of chimeric activator DNA (e.g., C7LBDA, C7LBDB, or mutants thereof ), and 0.4 μg of an inert carrier plasmid DNA (p3Kpn), was mixed with 60 μL of DMEM phenol-free/serum free media, and 5 μL of Superfect reagent. In general, about 10 ng to about 0.5 μg of chimeric activator DNA was used for each well.
The mixture was vortexed for 10 seconds and incubated at room temperature for 10 minutes, followed by the addition of 350 μL of DMEM phenol-free 5% sFBS media. Cells were washed once with Dulbecco's phosphate buffered saline (DPBS) and the transfection mixture placed on the cells. Cells were washed once with DPBS following a 2.5 hour incubation at 37 degrees Celsius, and re-fed with DMEM Phenol-free 5% sFBS media.
Cells were treated 24 hours later by washing once with DPBS and adding 200 μL 1X reporter lysis buffer (Promega). Plates were frozen at -80° C. and on the day of assay thawed at room temperature for 1.5 hours on an orbital shaker at 100 RPM. After allowing for cellular debris to settle, lysate was transferred to a new tube, diluted 1:10 with 1X reporter lysis buffer and 10 μL transferred to 96 well opaque plates.
The sequence of the oligonucleotides used for the H524G modification were […] […] Mutated plasmids were isolated and their sequence confirmed.

For the next series, the target named is T4, H524A mutant (Homo sapiens, UniProt P03372, H524A).
T4 construct: plasmids encoding the fusion proteins ER-LBD-C7LBDa and C7LBDb to substitute either alanine or glycine for histidine at residue 524; expressed in transfected cells
T4 sequence (P03372 311-547 H524A limits assumed): T3 sequence (P03372 311-547 H524G limits assumed) with G214A
In words: H524A mutant activation, cell-based reporter gene assay. Conditions: 10 nM ligand. The method, then:
as §1
as §2, with “well. […]” for “well.”
(Reporter assays use an easily measured gene product as a stand-in for the process of interest.)

The target of the next series is T5, wild-type ER (Homo sapiens, UniProt P03372).
T5 construct: expressed in transfected cells; host or cells: COS-7
T5 sequence (P03372 1-595): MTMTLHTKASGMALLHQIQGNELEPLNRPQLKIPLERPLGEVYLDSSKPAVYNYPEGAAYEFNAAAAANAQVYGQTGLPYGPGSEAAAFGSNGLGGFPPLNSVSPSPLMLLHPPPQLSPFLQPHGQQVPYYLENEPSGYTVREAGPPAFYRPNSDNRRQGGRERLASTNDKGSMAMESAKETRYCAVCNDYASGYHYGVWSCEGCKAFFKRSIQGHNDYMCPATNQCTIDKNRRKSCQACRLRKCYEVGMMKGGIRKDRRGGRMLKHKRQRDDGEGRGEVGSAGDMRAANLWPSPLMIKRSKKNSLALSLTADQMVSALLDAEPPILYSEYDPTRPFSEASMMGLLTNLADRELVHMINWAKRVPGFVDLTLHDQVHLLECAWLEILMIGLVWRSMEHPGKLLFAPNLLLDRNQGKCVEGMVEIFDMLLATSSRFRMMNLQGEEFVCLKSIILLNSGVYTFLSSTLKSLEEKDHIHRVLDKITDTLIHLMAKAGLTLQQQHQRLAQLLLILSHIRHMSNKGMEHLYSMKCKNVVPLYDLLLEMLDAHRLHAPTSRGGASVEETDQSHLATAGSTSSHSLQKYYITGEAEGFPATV
The experiment in a line: Inhibition of E2 activity on wild-type ER, COS-7 cells with pHEGO and ERE luciferase reporter. It counts as cell-based. To be noted: IC50 ± STDEV, pHEGO and pERETkLuc, E2 (3 nM) + 0.1 to 1000 nM compound. The method, then:
For transfection, 0.5 microgram of pERE2tkluc reporter plasmid, 20 ng of pHEGO, and 0.5 microgram of pCIneo inert carrier DNA were combined with 60 microliter serum-free DMEM and 5 microliter Qiagen Superfect transfection reagent, vortexed for 10s, and set at room temperature for 10 min. Each sample was diluted with 350 microliters of steroid-free media, mixed, and added to each well. Following 2 hr 30 min incubation at 37° C., cells were washed once with Dulbecco's phosphate buffered saline (DPBS), and refed with steroid-free media. […] Approximately 24 hr after treatment, cells were washed once with DPBS, then 200 microliter of reporter lysis buffer was added per well and frozen at −80° C. Cells were thawed at room temperature on an orbital shaker for 1 hr 30 min. A 10 microliter aliquot of lysate was transferred to 96 well opaque plates, and relative luciferase units (RLU) determined on a luminometer using the appropriate firefly luciferase substrate.
Note that the nonspecific activity is a noncompetable element in the assay system.
In order to dissolve them completely, all the solutions were warmed in 55° C. or boiled water bath for 10 to 20 min before use. The DMSO in cell culture medium was maintained to 0.01% for all the drug concentration tested as well as the vehicle control.

In the case of 4-hydroxytamoxifen [4-OHT], the “% Gated Cells” value in series [1] stood at 0.36%.

The fold induction is the ratio of treated to control signal. Usually EC50 stands for the midpoint of the concentration-response curve. The term IC50 denotes the concentration at which inhibition is half-maximal. With `C/C(=C(/c1ccc(O)cc1)c1ccc(OCCN(C)C)cc1)c1ccc(N2CCOCC2)cc1` [LBF580, 4-((1E)-1-{4-[2-(dimethylamino)ethoxy]phenyl}-2-(4-morpholin-4-ylphenyl)prop-1-enyl)phenol], the “Fold Induction” value in series [2] (100 nM ligand vs without ligand) was 8 fold. In series [2] ((+) induced with 100 nM ligand, mean +/− standard error (n = 4)), the “Luciferase Expression Levels (Relative Light Units)” value was 285695 +/− 2331 Relative Light Units. Moreover, the “luciferase activity over the basal level” value at Av3-H524G is reported as 16 times. Further, at ER-LBD H524G (10 nM), the “degree of induction of H524G as compared to estrogen” value is listed as “nine”. At ER-LBD H524G (10 nM ligand, H524G (FIG. 6)), the fold induction at 0.01 µM worked out at 138 and the “fold induction at 10 nM” value is reported as 140 fold. The EC50 on ER-LBD H524G (Table 3, read-out: EC50 ± STDEV) was not above 25 nM. Besides, at H524A mutant, the fold induction at 0.01 µM amounted to 4. The half-maximal inhibitory concentration (IC50) at wild-type ER was 253 nM.
